One may read the IC50 as the concentration needed to halve the response being measured. Usually Tmax stands for the time from dosing to the highest level. The term Cmax denotes the peak of the concentration-time curve.

Results on four molecules are retold here after patent US9573956B2, “Compounds as dual inhibitors of phosphodiesterases and histone deacetylases” (FUNDACIÓN PARA LA INVESTIGACIÓN MÉDICA APLICADA, priority 2013, dated 2017).

For one series, the target named is T1, PDE5A (Homo sapiens, UniProt O76074).
T1 construct: they are full-length with N-terminal GST tag; GST (N); purchased BPS Biosciences 60050; host or cells: baculovirus infected Sf9 cells
Kind of series: PDE enzyme activity assay (HTRF cGMP), PDE5A. The following applies: recombinant enzyme; read-out: PDE5A1 inhibition (IC50). The series is classed as biochemical. For orientation: TR-FRET usually uses a lanthanide donor and a delayed reading to cut background.

The next series has as its target HDAC1 (Homo sapiens, UniProt Q13547). Kind of series: HDAC enzyme activity assay (fluorogenic substrate), HDAC1. The series is classed as biochemical. The settings on record: recombinant enzyme; read-out: HDAC1 inhibition (IC50).
The target of a further series is T2, HDAC2 (Homo sapiens, UniProt Q92769).
T2 construct: NM_001527; Cat. #50002) is full-length with C-terminal his tag; His (C); purchased BPS Biosciences 50002; host or cells: baculovirus infected Sf9 cells
T2 sequence (Q92769 whole entry): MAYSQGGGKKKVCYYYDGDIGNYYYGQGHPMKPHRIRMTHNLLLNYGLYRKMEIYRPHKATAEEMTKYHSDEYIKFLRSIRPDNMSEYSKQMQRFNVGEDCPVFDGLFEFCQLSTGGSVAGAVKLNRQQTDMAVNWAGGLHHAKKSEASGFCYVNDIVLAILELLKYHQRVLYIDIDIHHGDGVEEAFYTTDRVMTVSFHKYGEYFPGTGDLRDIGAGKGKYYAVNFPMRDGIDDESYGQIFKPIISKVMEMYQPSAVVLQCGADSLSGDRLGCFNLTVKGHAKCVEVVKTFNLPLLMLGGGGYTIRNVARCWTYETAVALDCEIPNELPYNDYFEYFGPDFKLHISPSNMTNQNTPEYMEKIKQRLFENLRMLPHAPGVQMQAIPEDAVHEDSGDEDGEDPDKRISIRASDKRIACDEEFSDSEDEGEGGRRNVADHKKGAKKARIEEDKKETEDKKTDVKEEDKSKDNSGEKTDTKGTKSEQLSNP
Kind of series: HDAC enzyme activity assay (fluorogenic substrate), HDAC2. The series is classed as biochemical. The following applies: recombinant enzyme; read-out: HDAC2 inhibition (IC50).

For another series, the target named is T3, HDAC3 (Homo sapiens, UniProt O15379).
T3 construct: is full-length with C-terminal his tag and human NCOR2, N-terminal GST tag; His (C); purchased BPS Biosciences 50003; host or cells: baculovirus infected Sf9 cells
T3 sequence (O15379 whole entry): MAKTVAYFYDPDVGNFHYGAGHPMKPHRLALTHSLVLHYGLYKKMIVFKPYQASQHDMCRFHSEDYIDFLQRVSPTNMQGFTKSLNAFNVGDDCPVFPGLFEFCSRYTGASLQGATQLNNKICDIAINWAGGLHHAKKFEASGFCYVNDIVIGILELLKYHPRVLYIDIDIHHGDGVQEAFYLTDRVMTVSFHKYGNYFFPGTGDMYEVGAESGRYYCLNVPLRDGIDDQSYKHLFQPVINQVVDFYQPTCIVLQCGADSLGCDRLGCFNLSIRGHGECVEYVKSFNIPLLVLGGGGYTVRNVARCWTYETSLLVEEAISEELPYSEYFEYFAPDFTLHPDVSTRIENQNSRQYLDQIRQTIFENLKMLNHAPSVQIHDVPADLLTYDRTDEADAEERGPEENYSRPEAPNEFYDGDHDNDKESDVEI
T3 sequence (Q9Y618 395-489 partner limits assumed): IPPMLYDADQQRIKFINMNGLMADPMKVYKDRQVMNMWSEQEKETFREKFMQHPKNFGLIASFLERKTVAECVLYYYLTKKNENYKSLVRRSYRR
Nature of the series: HDAC enzyme activity assay (fluorogenic substrate), HDAC3. The following applies: recombinant enzyme; read-out: HDAC3 inhibition (IC50). The series is classed as biochemical.

For series [1], the system named is pCREB. Kind of series: PDE activity in wild type primary neurons (Western blot pCREB). The following applies: Mus musculus, Neuron, 0.5 h, 30 min, EC50 = 50% increase in pCREB over basal. The format is cell-based. On the technique in general: A western blot detects proteins with antibodies after separation by electrophoresis.
Series [2] has as its system acetylated histone 3 at Lys9 (AcH3K9). Kind of series: HDAC activity in wild type primary neurons (Western blot AcH3K9). The series is classed as cell-based, mouse. The settings on record: Mus musculus, Neuron, 0.5 h, 30 min, EC50 = 50% increase in AcH3K9 over basal, read-out: AcH3 (EC50).
A further series relates to acetylated-α-tubulin. Kind of series: AD-related markers in Tg2576 neurons: acetylated-tubulin. The following applies: Mus musculus, Neuron, 48 h, treated two days, EC50 = 50% increase in acetylated-α-tubulin over basal, read-out: AcTub (EC50). The series is classed as cell-based.
Series [3] has as its system pCREB. Kind of series: In-vivo activity, hippocampus of wild type mice: pCREB. The following applies: i.p. 40 mg/kg, hippocampus one hour later. The arrangement: species or system mouse. As to the method: (§1) To determine the ability of the compounds to inhibit HDAC and PDE in the brain, the compound was administered to wild type mice by i.p. at a dose of 40 mg/kg (n=3). Another group of animals received the vehicle (1/1/8, v:v:v, DMSO/Tween 20/saline). One hour later, mice were sacrificed by cervical dislocation and their hippocampus was quickly dissected from the brains.
(§2) Total tissue homogenates were obtained by homogenizing the hippocampus in a cold lysis buffer with protease inhibitors (0.2 M NaCl, 0.1 M HEPES, 10% glycerol, 200 mM NaF, 2 mM Na4P2O7, 5 mM EDTA, 1 mM EGTA, 2 mM DTT, 0.5 mM PMSF, 1 mM Na3VO4 and Complete Protease Inhibitor Cocktail, Roche Diagnostics). The homogenate was then centrifuged at 14,000×g at 4° C. for 20 min and the supernatant aliquoted and stored at −80° C. Total protein concentrations were determined using the BioRad Bradford protein assay (BioRad Laboratories). Protein samples were analyzed as described in the “in vitro” section.

The test system of a further series is AcH3. Nature of the series: In-vivo activity, hippocampus of wild type mice: AcH3. The arrangement: species or system mouse. The settings on record: i.p. 40 mg/kg, hippocampus one hour later. As to the method:
as §1, §2

Series [4] can be described thus: Pharmacokinetics, plasma and brain concentrations in wild type mice. The format is in vivo. The following applies: mouse, ip; for CMax (brain; nmol/Kg): in vivo; for Tmax / Cmax: single intraperitoneal injection, wild type mice; for Tmax: time of maximum concentration in brain; for Cmax: plasma, at tMax, (Standard Deviation). As to the method:
Plasma and brain samples for measuring compounds concentrations were collected at predetermined times from four wild type mice per point. Three time points were measured: 0.25, 0.5 and 1.0 hour. Compounds concentration was measured using a Xevo-TQ MS triple quadropole mass spectrometer with an electrospray ionization (ESI) source and an Acquity UPLC (Waters, Manchester, UK).
[…]. Compounds were injected as a single intraperitoneal injection. Animals were killed by decapitation.
Plasma. Blood was collected into tubes containing EDTA and plasma was collected via centrifugation (4° C., 13200 rpm, 5 min) and stored at −80° C. until analysis.
Brain. Brains were collected immediately after mice death. The brains were excised, weighed and frozen at −80° C. until further process for analysis.
Chromatographic separation was performed by gradient elution at 0.4 mL/min using an Acquity UPLC BEH C18 column (100×2.1 mm, 1.7 μm particle size; Waters). The mobile phase consisted of A: water with 0.1% formic acid, B: methanol with 0.1% formic acid. After 1.5 min at the initial condition of 95% A, solvent B was increased from 5% to 100% over 2 min, maintained at 100% for 1.5 min, then a linear gradient to initial conditions was applied for 0.1 min and maintained for 3.4 minutes to re-equilibrate the column, giving a cycle time of 8.5 min. The autosampler temperature was set at 10° C. and column temperature at 45° C.
Compounds were monitored using a triple quadrupole mass spectrometer equipped with an electrospray ionization interface. For detection and quantification, a capillary voltage of 3.5 kV and a cone voltage of 38 V were used. Source and desolvation temperatures were 150° C. and 650° C., respectively. Ultra-high purity nitrogen was used for cone gas (75 L h^−1) and desolvation gas (1000 L h^−1). The electrospray ionization operated in the positive mode, and the collision gas used was ultra-pure argon at a flow rate of 0.15 mL min^−1.
Quantification was achieved by external calibration using matrix-matched standards. Concentrations were calculated using a weighted least-squares linear regression (W=1/×). […]. The mixture was then agitated for 10 min and centrifuged at 13200 rpm for 5 min at 4° C. The resulting supernatants were transferred to a Ostro plate (Waters, Manchester, UK), designed to remove phospholipids. The resulting eluents were evaporated at 37° C. under a stream of nitrogen. Residues were dissolved in 75 μL of a mixture of methanol and water (50:50, v:v). A 10-uL aliquot of the resulting solution was injected onto the LC-MS/MS system for analysis. Frozen plasma samples were thawed at room temperature, vortexed thoroughly and subjected to the above described extraction procedure. Brain samples were thawed unassisted at room temperature and homogenized using a Branson 250 ultrasonic sonifier (Branson, Danbury, Conn., USA). When homogenized, 75 mg were weighted and extracted as described previously.
Concentration values obtained from the LC-MS/MS analyses are described in Table 4.

Marks after values point to notes of the source that are not given here.

Sequence of HDAC1 (Q13547 whole entry): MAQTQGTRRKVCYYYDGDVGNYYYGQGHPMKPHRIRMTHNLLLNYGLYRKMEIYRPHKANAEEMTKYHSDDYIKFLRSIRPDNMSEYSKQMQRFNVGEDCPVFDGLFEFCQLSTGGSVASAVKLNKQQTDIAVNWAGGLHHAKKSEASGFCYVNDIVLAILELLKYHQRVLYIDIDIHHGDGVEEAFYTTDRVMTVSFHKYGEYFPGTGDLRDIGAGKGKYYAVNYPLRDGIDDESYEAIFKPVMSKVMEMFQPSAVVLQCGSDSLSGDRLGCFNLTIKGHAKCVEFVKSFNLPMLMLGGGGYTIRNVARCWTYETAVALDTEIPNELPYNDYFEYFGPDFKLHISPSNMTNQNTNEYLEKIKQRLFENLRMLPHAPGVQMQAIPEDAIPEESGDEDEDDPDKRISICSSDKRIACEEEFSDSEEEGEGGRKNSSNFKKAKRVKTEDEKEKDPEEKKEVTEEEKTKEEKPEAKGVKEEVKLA

Turning to `CCCc1nn(C)c2c(=O)[nH]c(-c3cc(CC4CC(C(=O)NO)C4)ccc3OCC)nc12` (racemic) [Example 1-19, 3-[[4-ethoxy-3-(1-methyl-7-oxo-3-propyl-6H-pyrazolo[4,3-d]pyrimidin-5-yl)phenyl]methyl]cyclobutanecarbohydroxamic acid], the IC50 at PDE5A, at HDAC1, on HDAC2 and on HDAC3 was 10 to 1000 nM in each case. Further, the EC50 (in the series on pCREB [1]; in series [2]; in the series on acetylated-α-tubulin) was 10 to 1000 nM each time. In addition, in the series with pCREB [3], the “pCREB, increment in biological response vs basal” value is reported as “+++ (basal×2≦(+++)<basal×3)”. In addition, the “AcH3, increment in biological response vs basal” value with AcH3 was “+++ (basal×2≦(+++)<basal×3)”. Also, the “CMax (brain; nmol/Kg)” value in [4] (40 mg/kg) is listed as 609 (178)^c nmol/Kg. Moreover, the Tmax in [4] (dosage 40 mg/Kg) is 15 min. This molecule showed a Cmax in [4] (dosage 40 mg/Kg) of 15800 nM.
Take `CCCc1nn(C)c2c(=O)[nH]c(-c3cc(S(=O)(=O)N4CCN(c5ncc(C(=O)NO)cn5)CC4)ccc3OCC)nc12` [Example 1-06, 2-(4-[3-(6,7-Dihydro-1-methyl-7-oxo-3-propyl-1H-pyrazolo[4,3-d]pyrimidin-5-yl)-4-ethoxyphenylsulfonyl]piperazin-1-yl)-N-hydroxypyrimidine-5-carboxamide]: the IC50 at PDE5A is below 10 nM; on HDAC1 it was below 10 nM; at HDAC2, 10 to 1000 nM; at HDAC3, 10 to 1000 nM. Besides, the EC50 (with pCREB [1]; in series [2]; with acetylated-α-tubulin) was 10 to 1000 nM in each case. The “pCREB, increment in biological response vs basal” value with pCREB [3] is recorded as “+++ (basal×2≦(+++)<basal×3)”. Also, the “AcH3, increment in biological response vs basal” value in the series with AcH3 is recorded as “+++ (basal×2≦(+++)<basal×3)”. Further, the “CMax (brain; nmol/Kg)” value in [4] (20 mg/kg) is on record as 5.8 (1.8)^c nmol/Kg. Also, the Tmax in [4] (dosage 20 mg/Kg) worked out at 15 min. This molecule yielded a Cmax in [4] (dosage 20 mg/Kg) of 283 nM.
As to `CCCc1nn(C)c2c(=O)[nH]c(-c3cc(Cc4ccc(C(=O)NO)cc4)ccc3OCC)nc12` [Example 1-15, 4-[[4-ethoxy-3-(1-methyl-7-oxo-3-propyl-6H-pyrazolo[4,3-d]pyrimidin-5-yl)phenyl]methyl]benzenecarbohydroxamic acid], the IC50 at PDE5A was 10 to 1000 nM; at HDAC1 it was 10 to 1000 nM; at HDAC2, 1000 to 10000 nM; at HDAC3, 1000 to 10000 nM. Moreover, the EC50 (in the series with pCREB [1]; in series [2]; in the series with acetylated-α-tubulin) was 10 to 1000 nM in each case. In the series on pCREB [3], the “pCREB, increment in biological response vs basal” value is “+ (basal×1 means no increment (+))”. In the series with AcH3, the “AcH3, increment in biological response vs basal” value was “+ (basal×1 means no increment (+))”. For the same molecule, the “CMax (brain; nmol/Kg)” value in series [4] (20 mg/kg) is given as 29 (8)^c nmol/Kg. The Tmax in series [4] (dosage 20 mg/Kg) was 15 min. Further, the Cmax in series [4] (dosage 20 mg/Kg) stood at 653 nM.
As to `CCCc1nn(C)c2c(=O)[nH]c(-c3cc(Cc4ccc(C(=O)NO)s4)ccc3OCC)nc12` [Example 1-16], the IC50 on PDE5A lay in the range of 10 to 1000 nM; on HDAC1, 10 to 1000 nM; on HDAC2, 1000 to 10000 nM; at HDAC3 it was 1000 to 10000 nM. Moreover, the EC50 (with pCREB [1]; in series [2]; in the series with acetylated-α-tubulin) was 10 to 1000 nM in each case. For the same molecule, the “pCREB, increment in biological response vs basal” value in the series on pCREB [3] is “+ (basal×1 means no increment (+))”. The “AcH3, increment in biological response vs basal” value in the series with AcH3 is “++ (basal×1≦(++)<basal×2)”. In [4] (20 mg/kg), the “CMax (brain; nmol/Kg)” value is given as 102 (7)^c nmol/Kg. Further, in series [4] (dosage 20 mg/Kg), the Tmax was 30 min. In addition, the peak level in series [4] (dosage 20 mg/Kg) (Cmax) was 11800 nM.
